Drawing on ChEMBL document CHEMBL1201862, “PubChem BioAssay data set” (2004), this text covers IC50, EC50 and AC50 for four molecules.

The target in assay [1] is T1, Type-1 angiotensin II receptor (Homo sapiens, UniProt P30556).
T1 sequence (P30556 whole entry): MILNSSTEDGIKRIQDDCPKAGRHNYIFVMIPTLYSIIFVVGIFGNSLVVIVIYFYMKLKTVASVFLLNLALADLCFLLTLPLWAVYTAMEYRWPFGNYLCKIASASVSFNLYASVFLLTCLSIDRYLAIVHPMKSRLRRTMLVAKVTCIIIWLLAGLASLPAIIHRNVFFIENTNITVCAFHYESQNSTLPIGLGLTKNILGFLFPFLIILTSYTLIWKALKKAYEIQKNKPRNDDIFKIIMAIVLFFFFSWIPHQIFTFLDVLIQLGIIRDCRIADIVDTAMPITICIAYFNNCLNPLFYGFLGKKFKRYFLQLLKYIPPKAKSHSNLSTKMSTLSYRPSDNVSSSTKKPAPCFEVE
Nature of the assay: AT1 receptor antagonists, dose response, selectivity assay for APJ receptor antagonist project, cell-based, uHTS hits (AID 463214).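 Note: antagonist potency against angiotensin II stimulated AT1 response.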 Format: functional.

The target of the next assay is Beta-galactosidase (Escherichia coli, UniProt Q8VNN2). Put plainly: PubChem AID 485352. Format: functional.
The subject of the next assay is HEK293. Nature of the assay: cells. Conditions: Homo sapiens. The assay is classed as functional, cell-based.
The target of assay [2] is T2, Nuclear receptor subfamily 0 group B member 1 (Homo sapiens, UniProt P51843).
T2 sequence (P51843 whole entry): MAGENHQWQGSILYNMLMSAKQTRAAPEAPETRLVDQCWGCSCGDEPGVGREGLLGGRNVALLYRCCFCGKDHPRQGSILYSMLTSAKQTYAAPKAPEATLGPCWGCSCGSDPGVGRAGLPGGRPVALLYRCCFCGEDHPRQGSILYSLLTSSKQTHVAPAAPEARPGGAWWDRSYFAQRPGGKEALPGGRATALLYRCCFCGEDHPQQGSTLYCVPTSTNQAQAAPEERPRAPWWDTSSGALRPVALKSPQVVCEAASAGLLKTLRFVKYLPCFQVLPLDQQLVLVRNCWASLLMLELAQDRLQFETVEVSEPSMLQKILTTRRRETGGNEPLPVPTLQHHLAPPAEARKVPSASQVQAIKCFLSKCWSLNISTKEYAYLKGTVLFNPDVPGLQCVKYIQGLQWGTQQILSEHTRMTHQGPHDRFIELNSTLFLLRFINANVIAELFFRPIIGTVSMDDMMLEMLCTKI
Nature of the assay: Luminescence-based cell-based high throughput dose response assay for inhibitors of the orphan nuclear receptor subfamily 0, group B, member 1 (DAX1; NR0B1). [Related pubchem assays (depositor defined):AID504766, AID504790]. Format: functional.

Assay [3] has as its target T3, Short transient receptor potential channel 4 (Mus musculus, UniProt Q9QUQ5).
T3 sequence (Q9QUQ5 whole entry): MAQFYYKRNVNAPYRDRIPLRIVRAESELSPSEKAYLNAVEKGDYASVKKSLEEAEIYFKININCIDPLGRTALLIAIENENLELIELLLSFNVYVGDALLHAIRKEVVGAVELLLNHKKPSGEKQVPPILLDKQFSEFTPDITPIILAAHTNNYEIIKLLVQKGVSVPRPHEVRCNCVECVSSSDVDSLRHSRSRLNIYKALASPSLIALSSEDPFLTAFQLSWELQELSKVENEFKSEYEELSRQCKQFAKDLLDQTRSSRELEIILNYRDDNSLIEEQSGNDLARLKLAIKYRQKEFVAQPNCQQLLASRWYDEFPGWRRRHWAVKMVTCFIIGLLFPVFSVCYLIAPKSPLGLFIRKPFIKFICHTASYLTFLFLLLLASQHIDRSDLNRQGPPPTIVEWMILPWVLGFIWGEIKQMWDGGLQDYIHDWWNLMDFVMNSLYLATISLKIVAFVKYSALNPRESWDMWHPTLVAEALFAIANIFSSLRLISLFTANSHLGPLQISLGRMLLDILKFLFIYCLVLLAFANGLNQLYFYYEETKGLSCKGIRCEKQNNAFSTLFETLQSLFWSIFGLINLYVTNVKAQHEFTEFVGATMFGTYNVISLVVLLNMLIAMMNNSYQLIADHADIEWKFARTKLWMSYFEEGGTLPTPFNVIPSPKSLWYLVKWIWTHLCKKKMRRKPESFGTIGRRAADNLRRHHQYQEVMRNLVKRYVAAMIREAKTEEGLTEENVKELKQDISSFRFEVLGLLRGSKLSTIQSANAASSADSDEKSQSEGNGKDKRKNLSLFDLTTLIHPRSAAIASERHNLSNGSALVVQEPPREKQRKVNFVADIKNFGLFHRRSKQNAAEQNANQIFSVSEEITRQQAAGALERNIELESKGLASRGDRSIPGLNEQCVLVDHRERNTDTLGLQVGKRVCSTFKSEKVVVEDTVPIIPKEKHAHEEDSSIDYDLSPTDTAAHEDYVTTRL
Put plainly: mouse TRPC4 channel activators, dose response, cell-based, HEK293 TRPC4/mu-opioid, Fluo-4 calcium (AID 434937). Format: functional.

For assay [4], the target named is 5-hydroxytryptamine receptor 5A (Homo sapiens, UniProt P47898). Put plainly: Counterscreen for agonists of OPRM1-OPRD1 heterodimerization: luminescence-based cell-based high throughput dose response assay to identify agonists of 5-hydroxytryptamine (serotonin) 5A receptor (HTR5A). [Related pubchem assays (depositor defined):AID504326, AID504355, AID504692, AID504904, AID504905]. The assay is classed as functional. On the technique in general: A counterscreen serves to expose hits that act by an unwanted route or on another target.

Assay [5] addresses Delta-type opioid receptor (Homo sapiens, UniProt P41143). Nature of the assay: Counterscreen for agonists of heterodimerization of the mu 1 (OPRM1) and delta 1 (OPRD1) opioid receptors: Luminescence-based cell-based high throughput dose response assay to identify agonists of OPRD1 homodimerization. [Related pubchem assays (depositor defined):AID504326, AID504355, AID504692, AID504904, AID504905]. Format: functional.

For the next assay, the target named is Mu-type opioid receptor (Homo sapiens, UniProt P35372). Put plainly: Counterscreen for agonists of heterodimerization of the mu 1 (OPRM1) and delta 1 (OPRD1) opioid receptors: Luminescence-based cell-based high throughput dose response assay to identify agonists of OPRM1 homodimerization. The assay is classed as functional.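 Note: U2OS cells expressing OPRM1 and beta-arrestin as split beta-galactosidase partners.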
The next assay relates to A-375. Put plainly: A375 melanoma cell viability reduction, dose response, counter-screen for MITF modulator project, cherry-pick samples, set 2 (AID 540335). Format: functional, cell-based. The conditions noted are these: Homo sapiens.
A short description of assay [6]: growth suppression of PTEN-null colon cells, dose response, cell-based, HCT116 PTEN knockout (AID 1047).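 Note: HCT116 colon tumor cells with PTEN knocked out; cells exposed to compound for 60 hours before readout; potency for loss of cell viability measured by luminescence.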 Format: functional.
A short description of assay [7]: growth suppression of beta-catenin-knockout colon cells, dose response, cell-based, HCT116, human colon tumor (AID 1045).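 Note: HCT116 colon tumor cells with beta catenin knocked out; cells exposed to compound for 60 hours.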 Format: functional.
The target in another assay is Protein Wnt-3a (Mus musculus, UniProt P27467). Put plainly: Wnt3a-driven reporter signaling inhibition, dose response, selectivity assay for Gli-SUFU antagonist project, Wnt-LIGHT cells, luminescence (AID 651570).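 Note: Wnt-LIGHT reporter cells stimulated with conditioned medium from Wnt3a-producing cells.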 Format: functional. The conditions noted are these: read-out: IC50_Mean.
Assay [8] has as its target T4, Microphthalmia-associated transcription factor (Homo sapiens, UniProt O75030).
T4 sequence (O75030 whole entry): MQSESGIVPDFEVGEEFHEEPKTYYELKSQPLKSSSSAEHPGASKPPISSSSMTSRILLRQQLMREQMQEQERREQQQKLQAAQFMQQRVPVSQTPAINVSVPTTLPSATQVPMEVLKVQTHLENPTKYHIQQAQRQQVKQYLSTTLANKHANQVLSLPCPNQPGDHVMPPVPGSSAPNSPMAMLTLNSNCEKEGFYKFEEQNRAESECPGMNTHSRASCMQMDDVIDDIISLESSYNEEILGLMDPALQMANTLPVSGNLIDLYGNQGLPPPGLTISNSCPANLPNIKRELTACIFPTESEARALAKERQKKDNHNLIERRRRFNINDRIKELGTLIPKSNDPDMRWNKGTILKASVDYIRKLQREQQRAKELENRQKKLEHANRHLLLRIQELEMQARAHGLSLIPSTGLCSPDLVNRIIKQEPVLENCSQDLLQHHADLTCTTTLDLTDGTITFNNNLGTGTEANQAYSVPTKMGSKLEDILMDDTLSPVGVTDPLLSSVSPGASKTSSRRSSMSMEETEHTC
Put plainly: TRPM1 promoter luciferase signal decrease, dose response, MITF inhibitor project, cell-based, SK-MEL-5, cherry-picked, set 3 (AID 493073).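 Note: SK-MEL-5 melanoma cells with luciferase driven by the MITF target TRPM1 promoter.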 Format: functional.

The source made the active and inactive calls. Some results are limits rather than exact numbers.

Sequence of Mu-type opioid receptor (P35372 whole entry): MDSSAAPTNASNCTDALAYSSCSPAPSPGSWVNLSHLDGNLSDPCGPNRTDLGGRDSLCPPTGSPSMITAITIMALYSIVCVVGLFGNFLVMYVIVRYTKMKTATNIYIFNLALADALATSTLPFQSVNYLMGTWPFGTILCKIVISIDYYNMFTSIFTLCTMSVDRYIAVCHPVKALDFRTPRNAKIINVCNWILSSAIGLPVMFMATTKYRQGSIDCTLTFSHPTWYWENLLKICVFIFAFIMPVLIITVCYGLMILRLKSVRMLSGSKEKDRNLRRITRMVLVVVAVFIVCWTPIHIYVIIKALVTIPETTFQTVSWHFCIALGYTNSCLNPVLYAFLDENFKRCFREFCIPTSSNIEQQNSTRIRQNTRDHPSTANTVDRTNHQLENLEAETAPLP
Sequence of Delta-type opioid receptor (P41143 whole entry): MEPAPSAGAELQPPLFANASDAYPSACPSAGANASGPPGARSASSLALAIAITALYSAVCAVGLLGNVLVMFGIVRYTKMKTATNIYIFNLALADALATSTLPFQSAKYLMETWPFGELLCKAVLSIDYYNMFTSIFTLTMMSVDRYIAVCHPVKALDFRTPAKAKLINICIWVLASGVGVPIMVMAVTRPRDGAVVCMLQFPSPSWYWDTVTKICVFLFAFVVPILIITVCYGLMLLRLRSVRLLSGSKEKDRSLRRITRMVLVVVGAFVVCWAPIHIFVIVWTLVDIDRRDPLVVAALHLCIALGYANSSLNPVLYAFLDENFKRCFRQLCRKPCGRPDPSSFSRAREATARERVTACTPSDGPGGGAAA
Sequence of 5-hydroxytryptamine receptor 5A (P47898 whole entry): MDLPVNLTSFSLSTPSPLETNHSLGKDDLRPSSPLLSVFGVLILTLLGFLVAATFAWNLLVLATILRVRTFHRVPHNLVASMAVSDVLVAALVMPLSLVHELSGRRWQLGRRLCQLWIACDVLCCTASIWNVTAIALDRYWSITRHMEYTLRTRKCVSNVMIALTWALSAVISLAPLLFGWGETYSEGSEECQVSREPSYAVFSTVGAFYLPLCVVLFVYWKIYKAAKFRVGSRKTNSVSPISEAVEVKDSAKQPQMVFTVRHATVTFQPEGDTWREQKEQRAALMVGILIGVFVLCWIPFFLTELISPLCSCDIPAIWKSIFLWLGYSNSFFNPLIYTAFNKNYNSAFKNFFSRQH
Sequence of Beta-galactosidase (Q8VNN2 whole entry): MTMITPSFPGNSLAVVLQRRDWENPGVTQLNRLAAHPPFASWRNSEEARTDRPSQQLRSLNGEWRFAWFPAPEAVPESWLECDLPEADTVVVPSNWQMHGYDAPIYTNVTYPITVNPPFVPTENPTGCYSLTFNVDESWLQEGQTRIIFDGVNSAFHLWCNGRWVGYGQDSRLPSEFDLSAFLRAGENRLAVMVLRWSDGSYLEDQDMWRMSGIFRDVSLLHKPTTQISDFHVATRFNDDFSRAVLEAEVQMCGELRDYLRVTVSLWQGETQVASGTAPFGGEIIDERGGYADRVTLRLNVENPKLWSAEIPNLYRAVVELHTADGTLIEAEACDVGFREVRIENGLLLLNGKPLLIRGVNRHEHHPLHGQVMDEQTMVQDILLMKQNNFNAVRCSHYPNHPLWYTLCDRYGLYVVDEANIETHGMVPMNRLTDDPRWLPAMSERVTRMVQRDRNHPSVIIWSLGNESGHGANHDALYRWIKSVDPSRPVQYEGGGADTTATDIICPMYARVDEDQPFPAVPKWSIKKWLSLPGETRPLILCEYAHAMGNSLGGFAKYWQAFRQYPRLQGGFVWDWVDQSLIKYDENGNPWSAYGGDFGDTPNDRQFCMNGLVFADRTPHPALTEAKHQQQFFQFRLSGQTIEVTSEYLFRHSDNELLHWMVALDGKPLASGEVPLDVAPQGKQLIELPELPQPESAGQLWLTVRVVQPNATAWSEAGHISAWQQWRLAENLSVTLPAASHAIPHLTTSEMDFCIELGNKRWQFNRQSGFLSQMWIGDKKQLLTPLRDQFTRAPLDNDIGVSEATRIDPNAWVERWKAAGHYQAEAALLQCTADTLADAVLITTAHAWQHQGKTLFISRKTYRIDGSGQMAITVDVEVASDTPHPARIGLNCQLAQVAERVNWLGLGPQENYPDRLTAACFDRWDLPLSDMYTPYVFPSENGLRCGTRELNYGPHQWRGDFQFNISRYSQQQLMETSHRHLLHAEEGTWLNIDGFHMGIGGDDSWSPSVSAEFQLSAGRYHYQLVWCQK
Sequence of Protein Wnt-3a (P27467 whole entry): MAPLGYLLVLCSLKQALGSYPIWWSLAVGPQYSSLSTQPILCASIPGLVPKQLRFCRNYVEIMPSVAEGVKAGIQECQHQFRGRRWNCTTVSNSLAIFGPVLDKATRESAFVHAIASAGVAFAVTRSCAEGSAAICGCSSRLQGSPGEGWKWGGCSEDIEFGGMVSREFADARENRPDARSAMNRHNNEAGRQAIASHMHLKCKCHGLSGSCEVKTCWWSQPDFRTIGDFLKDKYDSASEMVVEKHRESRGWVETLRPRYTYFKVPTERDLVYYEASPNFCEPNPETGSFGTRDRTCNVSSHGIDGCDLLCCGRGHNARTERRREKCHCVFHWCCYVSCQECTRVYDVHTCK

`CC1CCCN(CC(=O)c2ccc(Cl)c(Cl)c2)C1` (stereo not drawn): in assay [1], the IC50 is 4.76 µM (active). In addition, the half-maximal effective concentration (EC50) on Beta-galactosidase was 30.8 µM (active).
Consider `O=C(O)Cc1sc(Nc2ccccc2)nc1-c1cccs1`, for which the IC50 (with HEK293; in [2]) was > 67.5 µM (inactive) each time.
As to `COc1ccc(C(CNC(=O)C(Cc2ccccc2)NC(N)=O)N(C)C)cc1` (stereo not drawn), the 50% effective concentration (EC50) in assay [3] was 0.473 µM (active); in assay [4], > 92.5 µM (inactive); in assay [5], > 92.5 µM (inactive); on Mu-type opioid receptor, > 92.5 µM (inactive).
Regarding `CCn1c(/C=C/Nc2ccccc2)[n+](CC)c2cc(Cl)c(Cl)cc21`, the figures for the AC50 (in the assay on A-375; in assay [8]) were 34.8 µM (active) and 14.5 µM (active), respectively. Moreover, the EC50 is 2.4 µM (active) in assay [6] and 1.68 µM (active) in assay [7]. Further, the IC50 on Protein Wnt-3a is 7.29 µM (active).

As usually defined, the EC50 is the concentration needed to bring the measured effect to its halfway point. As usually defined, the AC50 is the concentration at which the activity in the assay is half-maximal.
